Assay results from PMC5760531, “Action Potential Recording and Pro-arrhythmia Risk Analysis in Human Ventricular Trabeculae” (Frontiers in Physiology, 2018).

Key:
[1] = human free (unbound) effective therapeutic plasma concentration used to calculate multiples; cited from earlier work
[2] = system: human ventricular trabeculae; experiment: Action potential recording and pro-arrhythmic score analysis in human ventricular trabeculae (hVT); conditions: 1Hz; for Beat Escape (raw data) / EADs (raw data) / Refractoriness Escape (raw data): n=4 trabeculae;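 as to all read-outs here: sharp microelectrode action potential recordings at 37°C in Tyrode-perfused trabeculae, 4 cumulative concentrations each applied 31 min, values averaged over last 30 APs, vehicle 0.1% DMSO as control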

Cc1cccc(C)c1OCC(C)N (stereo not drawn) [MEXILETINE, Mexiletine]
Free ETPC [1]: 4.1 µM | AMAX (average raw data) ([2]; 0.7-FOLD free ETPC (4.1µM)): 111 | AMAX percentage change compared to vehicle control ([2]; 0.7-FOLD free ETPC (4.1µM)): 0% | APD30 (average raw data) ([2]; 0.7-FOLD free ETPC (4.1µM)): 174 | APD30 percentage change compared to vehicle control ([2]; 0.7-FOLD free ETPC (4.1µM)): -5% | APD50 (average raw data) ([2]; 0.7-FOLD free ETPC (4.1µM)): 231 | APD50 percentage change compared to vehicle control ([2]; 0.7-FOLD free ETPC (4.1µM)): -3% | APD90 (average raw data) ([2]; 0.7-FOLD free ETPC (4.1µM)): 321 | APD90 percentage change compared to vehicle control ([2]; 0.7-FOLD free ETPC (4.1µM)): -1% | Alternans (average raw data) ([2]; 0.7-FOLD free ETPC (4.1µM)): 0.72 | Alternans percentage change compared to vehicle control ([2]; 0.7-FOLD free ETPC (4.1µM)): 7% | Beat Escape percentage change compared to vehicle control ([2]; 0.7-FOLD free ETPC (4.1µM)): 25% | EADs percentage change compared to vehicle control ([2]; 0.7-FOLD free ETPC (4.1µM)): 0% | ERP (average raw data) ([2]; 0.7-FOLD free ETPC (4.1µM)): 0.43 | ERP percentage change compared to vehicle control ([2]; 0.7-FOLD free ETPC (4.1µM)): 1% | Max Dispersion (average raw data) ([2]; 0.7-FOLD free ETPC (4.1µM)): 3.75 | Max Dispersion percentage change compared to vehicle control ([2]; 0.7-FOLD free ETPC (4.1µM)): 0% | RMP (average raw data) ([2]; 0.7-FOLD free ETPC (4.1µM)): -91 | RMP percentage change compared to vehicle control ([2]; 0.7-FOLD free ETPC (4.1µM)): 1% | Refractoriness Escape percentage change compared to vehicle control ([2]; 0.7-FOLD free ETPC (4.1µM)): 0% | STV (average raw data) ([2]; 0.7-FOLD free ETPC (4.1µM)): 0.51 | STV percentage change compared to vehicle control ([2]; 0.7-FOLD free ETPC (4.1µM)): 1% | Triangulation (average raw data) ([2]; 0.7-FOLD free ETPC (4.1µM)): 147 | Triangulation percentage change compared to vehicle control ([2]; 0.7-FOLD free ETPC (4.1µM)): 4% | Beat Escape (raw data) ([2]; 0.7-FOLD free ETPC (4.1µM)): 1 | EADs (raw data) ([2]; 0.7-FOLD free ETPC (4.1µM)): 0 | Refractoriness Escape (raw data) ([2]; 0.7-FOLD free ETPC (4.1µM)): 0 | AMAX (average raw data) ([2]; 7-FOLD free ETPC (4.1µM)): 109 | AMAX percentage change compared to vehicle control ([2]; 7-FOLD free ETPC (4.1µM)): -3% | APD30 (average raw data) ([2]; 7-FOLD free ETPC (4.1µM)): 158 | APD30 percentage change compared to vehicle control ([2]; 7-FOLD free ETPC (4.1µM)): -13% | APD50 (average raw data) ([2]; 7-FOLD free ETPC (4.1µM)): 206 | APD50 percentage change compared to vehicle control ([2]; 7-FOLD free ETPC (4.1µM)): -14% | APD90 (average raw data) ([2]; 7-FOLD free ETPC (4.1µM)): 297 | APD90 percentage change compared to vehicle control ([2]; 7-FOLD free ETPC (4.1µM)): -8% | Alternans (average raw data) ([2]; 7-FOLD free ETPC (4.1µM)): 0.68 | Alternans percentage change compared to vehicle control ([2]; 7-FOLD free ETPC (4.1µM)): 0% | Beat Escape percentage change compared to vehicle control ([2]; 7-FOLD free ETPC (4.1µM)): 25% | EADs percentage change compared to vehicle control ([2]; 7-FOLD free ETPC (4.1µM)): 0% | ERP (average raw data) ([2]; 7-FOLD free ETPC (4.1µM)): 0.41 | ERP percentage change compared to vehicle control ([2]; 7-FOLD free ETPC (4.1µM)): -5% | Max Dispersion (average raw data) ([2]; 7-FOLD free ETPC (4.1µM)): 2.82 | Max Dispersion percentage change compared to vehicle control ([2]; 7-FOLD free ETPC (4.1µM)): -25% | RMP (average raw data) ([2]; 7-FOLD free ETPC (4.1µM)): -91 | RMP percentage change compared to vehicle control ([2]; 7-FOLD free ETPC (4.1µM)): 1% | Refractoriness Escape percentage change compared to vehicle control ([2]; 7-FOLD free ETPC (4.1µM)): 0% | STV (average raw data) ([2]; 7-FOLD free ETPC (4.1µM)): 0.49 | STV percentage change compared to vehicle control ([2]; 7-FOLD free ETPC (4.1µM)): -3% | Triangulation (average raw data) ([2]; 7-FOLD free ETPC (4.1µM)): 140 | Triangulation percentage change compared to vehicle control ([2]; 7-FOLD free ETPC (4.1µM)): -1% | Beat Escape (raw data) ([2]; 7-FOLD free ETPC (4.1µM)): 1 | EADs (raw data) ([2]; 7-FOLD free ETPC (4.1µM)): 0 | Refractoriness Escape (raw data) ([2]; 7-FOLD free ETPC (4.1µM)): 0 | AMAX (average raw data) ([2]; 24-FOLD free ETPC (4.1µM)): 102 | AMAX percentage change compared to vehicle control ([2]; 24-FOLD free ETPC (4.1µM)): -9% | APD30 (average raw data) ([2]; 24-FOLD free ETPC (4.1µM)): 137 | APD30 percentage change compared to vehicle control ([2]; 24-FOLD free ETPC (4.1µM)): -25% | APD50 (average raw data) ([2]; 24-FOLD free ETPC (4.1µM)): 180 | APD50 percentage change compared to vehicle control ([2]; 24-FOLD free ETPC (4.1µM)): -25% | APD90 (average raw data) ([2]; 24-FOLD free ETPC (4.1µM)): 282 | APD90 percentage change compared to vehicle control ([2]; 24-FOLD free ETPC (4.1µM)): -13% | Alternans (average raw data) ([2]; 24-FOLD free ETPC (4.1µM)): 17.51 | Alternans percentage change compared to vehicle control ([2]; 24-FOLD free ETPC (4.1µM)): 2481% | Beat Escape percentage change compared to vehicle control ([2]; 24-FOLD free ETPC (4.1µM)): 75% | EADs percentage change compared to vehicle control ([2]; 24-FOLD free ETPC (4.1µM)): 0% | ERP (average raw data) ([2]; 24-FOLD free ETPC (4.1µM)): 0.39 | ERP percentage change compared to vehicle control ([2]; 24-FOLD free ETPC (4.1µM)): -8% | Max Dispersion (average raw data) ([2]; 24-FOLD free ETPC (4.1µM)): 50.33 | Max Dispersion percentage change compared to vehicle control ([2]; 24-FOLD free ETPC (4.1µM)): 1242% | RMP (average raw data) ([2]; 24-FOLD free ETPC (4.1µM)): -89 | RMP percentage change compared to vehicle control ([2]; 24-FOLD free ETPC (4.1µM)): -1% | Refractoriness Escape percentage change compared to vehicle control ([2]; 24-FOLD free ETPC (4.1µM)): 0% | STV (average raw data) ([2]; 24-FOLD free ETPC (4.1µM)): 12.96 | STV percentage change compared to vehicle control ([2]; 24-FOLD free ETPC (4.1µM)): 2873% | Triangulation (average raw data) ([2]; 24-FOLD free ETPC (4.1µM)): 145 | Triangulation percentage change compared to vehicle control ([2]; 24-FOLD free ETPC (4.1µM)): 3% | Beat Escape (raw data) ([2]; 24-FOLD free ETPC (4.1µM)): 3 | EADs (raw data) ([2]; 24-FOLD free ETPC (4.1µM)): 0 | Refractoriness Escape (raw data) ([2]; 24-FOLD free ETPC (4.1µM)): 0 | AMAX (average raw data) ([2]; 73-FOLD free ETPC (4.1µM)): 86 | AMAX percentage change compared to vehicle control ([2]; 73-FOLD free ETPC (4.1µM)): -22% | APD30 (average raw data) ([2]; 73-FOLD free ETPC (4.1µM)): 120 | APD30 percentage change compared to vehicle control ([2]; 73-FOLD free ETPC (4.1µM)): -27% | APD50 (average raw data) ([2]; 73-FOLD free ETPC (4.1µM)): 165 | APD50 percentage change compared to vehicle control ([2]; 73-FOLD free ETPC (4.1µM)): -27% | APD90 (average raw data) ([2]; 73-FOLD free ETPC (4.1µM)): 277 | APD90 percentage change compared to vehicle control ([2]; 73-FOLD free ETPC (4.1µM)): -9% | Alternans (average raw data) ([2]; 73-FOLD free ETPC (4.1µM)): 2.53 | Alternans percentage change compared to vehicle control ([2]; 73-FOLD free ETPC (4.1µM)): 272% | EADs percentage change compared to vehicle control ([2]; 73-FOLD free ETPC (4.1µM)): 0% | ERP (average raw data) ([2]; 73-FOLD free ETPC (4.1µM)): 0.42 | ERP percentage change compared to vehicle control ([2]; 73-FOLD free ETPC (4.1µM)): -1% | Max Dispersion (average raw data) ([2]; 73-FOLD free ETPC (4.1µM)): 6.30 | Max Dispersion percentage change compared to vehicle control ([2]; 73-FOLD free ETPC (4.1µM)): 68% | RMP (average raw data) ([2]; 73-FOLD free ETPC (4.1µM)): -76 | RMP percentage change compared to vehicle control ([2]; 73-FOLD free ETPC (4.1µM)): -13% | Refractoriness Escape percentage change compared to vehicle control ([2]; 73-FOLD free ETPC (4.1µM)): 0% | STV (average raw data) ([2]; 73-FOLD free ETPC (4.1µM)): 1.74 | STV percentage change compared to vehicle control ([2]; 73-FOLD free ETPC (4.1µM)): 182% | Triangulation (average raw data) ([2]; 73-FOLD free ETPC (4.1µM)): 157 | Triangulation percentage change compared to vehicle control ([2]; 73-FOLD free ETPC (4.1µM)): 12% | Beat Escape (raw data) ([2]; 73-FOLD free ETPC (4.1µM)): 1
